Measurements reported in patent US20070128217A1 (priority 2003, published 2007).

Experiments:
[1] = tested on: control sera (pooled serum of ten healthy LUMC hospital workers; commercial negative donor pooled serum from the Dutch bloodbank); type: binding, human; design: Binding of Control serum LUMC to linear peptides / Binding of Control serum Blood-bank to linear peptides / Binding of Control serum LUMC to looped peptides / Binding of Control Serum Blood-Bank to Looped peptides / Binding of Control serum LUMC to linear peptides of the protein M of SARS-CoV Urbani / Binding of Control serum Blood-bank to linear peptides of the protein M of SARS-CoV Urbani / Binding of Control serum LUMC to looped peptides of the protein M of SARS-CoV Urbani / Binding of Control Serum Blood-Bank to Looped peptides of the protein M of SARS-CoV Urbani: unit not given here
[2] = tested on: rabbit serum obtained by immunizing a rabbit with the SARS-CoV strain Frankfurt 1; type: binding; design: Binding of a rabbit serum to linear peptides / Binding of a rabbit serum to looped peptides / Rabbit serum linear peptides / Rabbit serum looped peptides / Binding of a rabbit serum to linear peptides of protein N of SARS-CoV Urbani (Rabbit serum linear peptides) / Binding of a rabbit serum to looped/cyclic peptides of protein N of SARS-CoV Urbani (Rabbit serum looped peptides): unit not given here
[3] = tested on: antibodies in sera from SARS patients (sera 1a, 1b, 2, 6, 37, 62, London, SARS-yellow, SARS-green); type: binding, human; design: Binding of serum 6 to linear peptides of protein X1 of SARS-CoV Urbani / Binding of serum 37 to linear peptides of protein X1 of SARS-CoV Urbani / Binding of serum 6 to looped/cyclic peptide (PEPSCAN-ELISA) / Binding of serum 37 to looped/cyclic peptide (PEPSCAN-ELISA) / Binding of serum 37 to looped/cyclic peptides of protein X1 of SARS-CoV Urbani / Binding of serum 6 to linear peptides of protein X2 / Binding of serum 37 to linear peptides of protein X2 / Binding of serum 37 to looped/cyclic peptides of protein X2 of SARS-CoV Urbani / Binding of serum 6 to linear peptides of protein M of SARS-CoV Urbani / Binding of serum 37 to linear peptides of protein M of SARS-CoV Urbani / Binding of serum 6 to looped/cyclic peptides of protein M of SARS-CoV Urbani / Binding of serum 37 to looped/cyclic peptides of protein M of SARS-CoV Urbani / Binding of serum 6 to linear peptides of protein X3 of SARS-CoV Urbani / Binding of serum 37 to linear peptides of protein X3 of SARS-CoV Urbani / Binding of serum 37 to looped/cyclic peptides of protein X3 of SARS-CoV Urbani / Binding of serum 6 to linear peptides of protein X4 of SARS-CoV Urbani / Binding of serum 37 to linear peptides of protein X4 of SARS-CoV Urbani / Binding of serum 37 to looped/cyclic peptides of protein X4 of SARS-CoV Urbani / Binding of serum 6 to linear peptides of protein X5 of SARS-CoV Urbani / Binding of serum 37 to linear peptides of protein X5 of SARS-CoV Urbani / Binding of serum 37 to looped/cyclic peptides of protein X5 of SARS-CoV Urbani / Binding of serum 6 to linear peptides of protein N of SARS-CoV Urbani / Binding of serum 37 to linear peptides of protein N of SARS-CoV Urbani / Binding of serum 6 to linear peptide (PEPSCAN-ELISA) / Binding of serum 1a to looped/cyclic peptides of protein N of SARS-CoV Urbani / Binding of serum 1b to looped/cyclic peptides of protein N of SARS-CoV Urbani / Binding of serum 2 to looped/cyclic peptides of protein N of SARS-CoV Urbani / Binding of serum 6 to looped/cyclic peptides of protein N of SARS-CoV Urbani / Binding of serum 37 to looped/cyclic peptides of protein N of SARS-CoV Urbani / Binding of serum 62 to looped/cyclic peptides of protein N of SARS-CoV Urbani / Binding of serum London to looped/cyclic peptides of protein N of SARS-CoV Urbani / Binding of serum SARS-green to looped/cyclic peptides of protein N of SARS-CoV Urbani: unit not given here

LLQTLVLKMLHSSSL
Binding of Control Serum Blood-Bank to Looped peptides [1]: 0.6 | Binding of Control serum Blood-bank to linear peptides [1]: 0.5 | Binding of Control serum LUMC to linear peptides [1]: 0.3 | Binding of Control serum LUMC to looped peptides [1]: 0.6 | Binding of a rabbit serum to linear peptides [2]: 0.2 | Binding of a rabbit serum to looped peptides [2]: 0.4 | Binding of serum 1a to linear peptides of protein X2 [3]: 0.6 | Binding of serum 1a to looped/cyclic peptides of protein X2 of SARS-CoV Urbani [3]: 0.5 | Binding of serum 1b to linear peptides of protein X2 [3]: 0.5 | Binding of serum 1b to looped/cyclic peptides of protein X2 of SARS-CoV Urbani [3]: 0.5 | Binding of serum 2 to linear peptides of protein X2 [3]: 0.3 | Binding of serum 2 to looped/cyclic peptides of protein X2 of SARS-CoV Urbani [3]: 0.3 | Binding of serum 6 to linear peptides of protein X2 [3]: 0.3 | Binding of serum 6 to looped/cyclic peptides of protein X2 of SARS-CoV Urbani [3]: 0.7 | Binding of serum 37 to linear peptides of protein X2 [3]: 0.5 | Binding of serum 37 to looped/cyclic peptides of protein X2 of SARS-CoV Urbani [3]: 0.4 | Binding of serum 62 to linear peptides of protein X2 [3]: 0.5 | Binding of serum 62 to looped/cyclic peptides of protein X2 of SARS-CoV Urbani [3]: 0.6 | Binding of serum London to linear peptides of protein X2 [3]: 0.4 | Binding of serum London to looped/cyclic peptides of protein X2 of SARS-CoV Urbani [3]: 1.1 | Binding of serum SARS-green to linear peptides of protein X2 [3]: 0.5 | Binding of serum SARS-green to looped/cyclic peptides of protein X2 of SARS-CoV Urbani [3]: 0.3 | Binding of serum SARS-yellow to linear peptides of protein X2 [3]: 0.5 | Binding of serum SARS-yellow to looped/cyclic peptides of protein X2 of SARS-CoV Urbani [3]: 0.5

HTIDGSSGVANPAMD
Binding of Control Serum Blood-Bank to Looped peptides [1]: 0.3 | Binding of Control serum Blood-bank to linear peptides [1]: 0.4 | Binding of Control serum LUMC to linear peptides [1]: 0.5 | Binding of Control serum LUMC to looped peptides [1]: 0.2 | Binding of a rabbit serum to linear peptides [2]: 0.1 | Binding of a rabbit serum to looped peptides [2]: 0.4 | Binding of serum 1a to linear peptides of protein X1 of SARS-CoV Urbani [3]: 0.7 | Binding of serum 1a to looped/cyclic peptides of protein X1 of SARS-CoV Urbani [3]: 0.3 | Binding of serum 1b to linear peptides of protein X1 of SARS-CoV Urbani [3]: 0.7 | Binding of serum 1b to looped/cyclic peptides of protein X1 of SARS-CoV Urbani [3]: 0.2 | Binding of serum 2 to linear peptides of protein X1 of SARS-CoV Urbani [3]: 0.5 | Binding of serum 2 to looped/cyclic peptides of protein X1 of SARS-CoV Urbani [3]: 0.1 | Binding of serum 6 to linear peptides of protein X1 of SARS-CoV Urbani [3]: 0.5 | Binding of serum 6 to looped/cyclic peptides of protein X1 of SARS-CoV Urbani [3]: 0.1 | Binding of serum 37 to linear peptides of protein X1 of SARS-CoV Urbani [3]: 0.7 | Binding of serum 37 to looped/cyclic peptides of protein X1 of SARS-CoV Urbani [3]: 0.3 | Binding of serum 62 to linear peptides of protein X1 of SARS-CoV Urbani [3]: 0.7 | Binding of serum 62 to looped/cyclic peptides of protein X1 of SARS-CoV Urbani [3]: 0.2 | Binding of serum London to linear peptides of protein X1 of SARS-CoV Urbani [3]: 0.3 | Binding of serum London to looped/cyclic peptides of protein X1 of SARS-CoV Urbani [3]: 0.1 | Binding of serum SARS-green to linear peptides of protein X1 of SARS-CoV Urbani [3]: 0.6 | Binding of serum SARS-green to looped/cyclic peptides of protein X1 of SARS-CoV Urbani [3]: 0.1 | Binding of serum SARS-yellow to linear peptides of protein X1 of SARS-CoV Urbani [3]: 0.4 | Binding of serum SARS-yellow to looped/cyclic peptides of protein X1 of SARS-CoV Urbani [3]: 0.1

VYYQLESTQITTDTG
Binding of Control Serum Blood-Bank to Looped peptides [1]: 0.3 | Binding of Control serum Blood-bank to linear peptides [1]: 0.4 | Binding of Control serum LUMC to linear peptides [1]: 0.4 | Binding of Control serum LUMC to looped peptides [1]: 0.3 | Binding of a rabbit serum to linear peptides [2]: 0.1 | Binding of a rabbit serum to looped peptides [2]: 0.5 | Binding of serum 1a to linear peptides of protein X1 of SARS-CoV Urbani [3]: 0.6 | Binding of serum 1a to looped/cyclic peptides of protein X1 of SARS-CoV Urbani [3]: 0.4 | Binding of serum 1b to linear peptides of protein X1 of SARS-CoV Urbani [3]: 0.5 | Binding of serum 1b to looped/cyclic peptides of protein X1 of SARS-CoV Urbani [3]: 0.2 | Binding of serum 2 to linear peptides of protein X1 of SARS-CoV Urbani [3]: 0.4 | Binding of serum 2 to looped/cyclic peptides of protein X1 of SARS-CoV Urbani [3]: 0.1 | Binding of serum 6 to linear peptides of protein X1 of SARS-CoV Urbani [3]: 0.4 | Binding of serum 6 to looped/cyclic peptides of protein X1 of SARS-CoV Urbani [3]: 0.1 | Binding of serum 37 to linear peptides of protein X1 of SARS-CoV Urbani [3]: 0.6 | Binding of serum 37 to looped/cyclic peptides of protein X1 of SARS-CoV Urbani [3]: 0.4 | Binding of serum 62 to linear peptides of protein X1 of SARS-CoV Urbani [3]: 0.5 | Binding of serum 62 to looped/cyclic peptides of protein X1 of SARS-CoV Urbani [3]: 0.3 | Binding of serum London to linear peptides of protein X1 of SARS-CoV Urbani [3]: 0.2 | Binding of serum London to looped/cyclic peptides of protein X1 of SARS-CoV Urbani [3]: 0.2 | Binding of serum SARS-green to linear peptides of protein X1 of SARS-CoV Urbani [3]: 0.2 | Binding of serum SARS-green to looped/cyclic peptides of protein X1 of SARS-CoV Urbani [3]: 0.2 | Binding of serum SARS-yellow to linear peptides of protein X1 of SARS-CoV Urbani [3]: 0.3 | Binding of serum SARS-yellow to looped/cyclic peptides of protein X1 of SARS-CoV Urbani [3]: 0.1

CLCKHKKVSTNLCTH
Binding of Control Serum Blood-Bank to Looped peptides [1]: 0.4 | Binding of Control serum Blood-bank to linear peptides [1]: 1.0 | Binding of Control serum LUMC to linear peptides [1]: 0.9 | Binding of Control serum LUMC to looped peptides [1]: 0.3 | Binding of a rabbit serum to linear peptides [2]: 0.4 | Binding of a rabbit serum to looped peptides [2]: 0.4 | Binding of serum 1a to looped/cyclic peptides of protein X2 of SARS-CoV Urbani [3]: 0.3 | Binding of serum 1b to looped/cyclic peptides of protein X2 of SARS-CoV Urbani [3]: 0.3 | Binding of serum 2 to looped/cyclic peptides of protein X2 of SARS-CoV Urbani [3]: 0.3 | Binding of serum 6 to looped/cyclic peptides of protein X2 of SARS-CoV Urbani [3]: 0.3 | Binding of serum 37 to looped/cyclic peptides of protein X2 of SARS-CoV Urbani [3]: 0.4 | Binding of serum 62 to looped/cyclic peptides of protein X2 of SARS-CoV Urbani [3]: 0.5 | Binding of serum London to looped/cyclic peptides of protein X2 of SARS-CoV Urbani [3]: 0.2 | Binding of serum SARS-green to looped/cyclic peptides of protein X2 of SARS-CoV Urbani [3]: 0.3 | Binding of serum SARS-yellow to looped/cyclic peptides of protein X2 of SARS-CoV Urbani [3]: 0.4 | Recognition of the peptide by sera of SARS-CoV infected individuals, and form (linear, looped/cyclic) in which it is recognized [3]: recognized in linear form

VSLVKPTVYVYSRVK
Binding of Control Serum Blood-Bank to Looped peptides [1]: 0.6 | Binding of Control serum Blood-bank to linear peptides [1]: 0.9 | Binding of Control serum LUMC to linear peptides [1]: 0.6 | Binding of Control serum LUMC to looped peptides [1]: 0.9 | Binding of a rabbit serum to linear peptides [2]: 1.5 | Binding of a rabbit serum to looped peptides [2]: 2.0

KLVKDPPNVQIHTID
Binding of Control Serum Blood-Bank to Looped peptides [1]: 0.4 | Binding of Control serum Blood-bank to linear peptides [1]: 0.4 | Binding of Control serum LUMC to linear peptides [1]: 0.5 | Binding of Control serum LUMC to looped peptides [1]: 0.4 | Binding of a rabbit serum to linear peptides [2]: 0.1 | Binding of a rabbit serum to looped peptides [2]: 0.4

EDYQIGGYSEDRHSG
Binding of Control Serum Blood-Bank to Looped peptides [1]: 0.4 | Binding of Control serum Blood-bank to linear peptides [1]: 0.4 | Binding of Control serum LUMC to linear peptides [1]: 0.4 | Binding of Control serum LUMC to looped peptides [1]: 0.5 | Binding of a rabbit serum to linear peptides [2]: 0.1 | Binding of a rabbit serum to looped peptides [2]: 0.6

INCQDPAGGALIARC
Binding of Control Serum Blood-Bank to Looped peptides [1]: 0.9 | Binding of Control serum Blood-bank to linear peptides [1]: 1.1 | Binding of Control serum LUMC to linear peptides [1]: 0.6 | Binding of Control serum LUMC to looped peptides [1]: 0.7 | Rabbit serum linear peptides [2]: 0.5 | Rabbit serum looped peptides [2]: 0.6

IGTQVLKTMSLYMAI
Binding of Control Serum Blood-Bank to Looped peptides [1]: 0.9 | Binding of Control serum Blood-bank to linear peptides [1]: 0.8 | Binding of Control serum LUMC to linear peptides [1]: 0.5 | Binding of Control serum LUMC to looped peptides [1]: 1.0 | Binding of a rabbit serum to linear peptides [2]: 0.1 | Binding of a rabbit serum to looped peptides [2]: 0.4

SLVKPTVYVYSRVKN
Binding of Control Serum Blood-Bank to Looped peptides [1]: 0.7 | Binding of Control serum Blood-bank to linear peptides [1]: 0.7 | Binding of Control serum LUMC to linear peptides [1]: 1.0 | Binding of Control serum LUMC to looped peptides [1]: 0.8 | Binding of a rabbit serum to linear peptides [2]: 0.3 | Binding of a rabbit serum to looped peptides [2]: 0.6
